Data from paper PMC9007350, “Aurintricarboxylic acid is a canonical disruptor of the TAZ-TEAD transcriptional complex” (PLoS ONE, 2022).

Target: T1, TAZ-TEAD complex (human TAZ (23-57) probe, human TEAD4 (217-434)) (Homo sapiens, UniProt Q15561)
T1 construct: made in house
Test: TAZ-TEAD fluorescence polarization assay
Type: binding
Conditions: comparison with ATA, S2 Fig
Experimental: Human YAP (61–100), human TAZ (23–57) and mouse Vgll1 (26–51) peptide probes were used; all the probes had carboxyfluorescein labels. Human TEAD4 (217–434) was used in the assay at a concentration of 350 nM and the peptide probe concentration was 25 nM. Disruptors were titrated at concentrations ranging from 0–150 μM to the probe-TEAD complex, and the mixtures were incubated at 25°C for 20 min. Then, polarization measurements were taken using a Victor3 (PerkinElmer) plate reader.

T1 sequence (Q15561 217-434, one chain of several): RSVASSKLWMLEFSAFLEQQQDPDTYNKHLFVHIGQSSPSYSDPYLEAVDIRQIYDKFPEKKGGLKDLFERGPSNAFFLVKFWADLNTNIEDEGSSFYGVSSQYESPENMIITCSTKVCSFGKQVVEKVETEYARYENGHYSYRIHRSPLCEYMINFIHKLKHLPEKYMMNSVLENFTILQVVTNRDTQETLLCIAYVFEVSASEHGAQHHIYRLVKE

verteporfin was tested. Which “effect in the TAZ-TEAD FP assay (in words)” value did it give?
The value was “did not display an effect”.
